Data from patent US10759793B2, “2-(pyrazolopyridin-3-yl)pyrimidine derivatives as JAK inhibitors” (ALMIRALL, S.A., priority 2015, dated 2020).

Legend:
Type in all cases: biochemical
[1] = target: JAK2 (Homo sapiens (Human), UniProt O60674); experiment: In vitro JAK kinase assay (TR-FRET), JAK2; details: catalytic domain aa 826-1132, GST-fusion; ATP 0.2 μM; peptide 20 nM; 30 minutes at room temperature
Experimental: (§1) Compounds were screened for their ability to inhibit JAK1, JAK2 and JAK3 using the assays as indicated below. […] The enzymatic activity was assayed using as substrate a biotinylated peptide, poly (GT)-Biotin (CisBio). […] The degree of phosphorylation was detected by TR-FRET (time-resolved fluorescence energy transfer). […] The enzymatic reactions took place for 30 minutes at room temperature. […] Incubate for 3 h and read on Victor 2V spectrofluorometer (Perkin Elmer) set to read fluorescence resonance energy transfer.

[2] = target: JAK1 (Homo sapiens (Human), UniProt P23458); experiment: In vitro JAK kinase assay (TR-FRET), JAK1; details: catalytic domain aa 850-1154, GST-fusion; ATP 3 μM; peptide 60 nM; 30 minutes at room temperature
JAK1, sequence (P23458 850-1154): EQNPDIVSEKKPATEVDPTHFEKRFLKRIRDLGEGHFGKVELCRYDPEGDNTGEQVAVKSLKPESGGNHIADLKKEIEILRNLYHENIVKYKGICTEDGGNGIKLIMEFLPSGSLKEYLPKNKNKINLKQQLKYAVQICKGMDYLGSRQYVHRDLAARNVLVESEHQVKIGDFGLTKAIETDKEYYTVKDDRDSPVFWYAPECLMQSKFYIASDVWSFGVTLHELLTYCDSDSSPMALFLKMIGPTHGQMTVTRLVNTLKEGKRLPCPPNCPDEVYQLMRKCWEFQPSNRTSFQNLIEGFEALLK
Experimental: as §1

[3] = target: JAK3 (Homo sapiens (Human), UniProt P52333); experiment: In vitro JAK kinase assay (TR-FRET), JAK3; details: catalytic domain aa 795-1124, GST-fusion; ATP 0.6 μM; peptide 140 nM; 30 minutes at room temperature
JAK3, sequence (P52333 795-1124): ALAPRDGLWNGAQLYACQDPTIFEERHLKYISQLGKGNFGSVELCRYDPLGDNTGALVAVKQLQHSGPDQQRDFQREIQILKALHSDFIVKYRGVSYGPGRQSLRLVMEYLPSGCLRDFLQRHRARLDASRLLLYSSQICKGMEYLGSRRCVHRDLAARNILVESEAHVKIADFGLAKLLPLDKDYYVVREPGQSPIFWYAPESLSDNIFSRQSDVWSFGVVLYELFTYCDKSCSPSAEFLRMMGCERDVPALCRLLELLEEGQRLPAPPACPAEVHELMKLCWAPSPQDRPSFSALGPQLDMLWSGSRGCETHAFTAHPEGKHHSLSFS
Experimental: as §1

JAK2, sequence (O60674 826-1132): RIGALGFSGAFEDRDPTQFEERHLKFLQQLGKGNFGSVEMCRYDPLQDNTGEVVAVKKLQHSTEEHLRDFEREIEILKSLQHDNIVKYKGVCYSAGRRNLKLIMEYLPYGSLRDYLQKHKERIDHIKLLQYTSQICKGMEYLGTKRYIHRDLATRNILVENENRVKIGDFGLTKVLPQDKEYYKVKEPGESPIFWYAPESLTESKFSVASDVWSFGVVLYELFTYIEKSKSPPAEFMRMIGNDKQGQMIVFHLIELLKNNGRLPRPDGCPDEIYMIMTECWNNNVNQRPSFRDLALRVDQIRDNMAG

IC50 [1] [nM] | IC50 [2] [nM] | IC50 [3] [nM] | Compound
2 | 13 | 27 | N#CCC(=O)N1CCC[C@@H](Oc2nc(-c3cnn4ccccc34)nc(-c3ccnc(CO)c3)c2F)C1 [Example 73, 3-[(3R)-3-({5-Fluoro-6-[2-(hydroxymethyl)pyridin-4-yl]-2-pyrazolo[1,5-a]pyridin-3-ylpyrimidin-4-yl}oxy)piperidin-1-yl]-3-oxopropanenitrile]
1 | 2 | 1 | COCCOc1cc(N[C@@H]2CCCN(C(=O)CC#N)C2)nc(-c2cnn3ccccc23)n1 [Example 97, 3-((3R)-3-{[6-(2-Methoxyethoxy)-2-pyrazolo[1,5-a]pyridin-3-ylpyrimidin-4-yl]amino}piperidin-1-yl)-3-oxopropanenitrile]
2 | 3 | 23 | Cc1cc(-c2nc(-c3cnn4ccccc34)nc(N(C)[C@@H]3CCCN(C(=O)CO)C3)c2F)ccn1 [Example 77, 2-{(3R)-3-[[5-Fluoro-6-(2-methylpyridin-4-yl)-2-pyrazolo[1,5-a]pyridin-3-ylpyrimidin-4-yl](methyl)amino]piperidin-1-yl}-2-oxoethanol]
0.6 | 6 | 2 | CC(C)(O)Cn1cc(-c2nc(-c3cnn4ccccc34)nc(N[C@@H]3CCCN(C(=O)CO)C3)c2F)cn1 [Example 33, 1-[4-(5-Fluoro-6-{[(3R)-1-glycoloylpiperidin-3-yl]amino}-2-pyrazolo[1,5-a]pyridin-3-ylpyrimidin-4-yl)-1H-pyrazol-1-yl]-2-methylpropan-2-ol]
0.7 | 7 | 4 | O=C(CO)N1CCC[C@@H](Nc2nc(-c3cnn4ccccc34)nc(N3CCC(O)CC3)c2F)C1 [Example 22, 1-(5-Fluoro-6-{[(3R)-1-glycoloylpiperidin-3-yl]amino}-2-pyrazolo[1,5-a]pyridin-3-ylpyrimidin-4-yl)piperidin-4-ol]
4 | 29 | 26 | O=C(CO)N1CCC[C@@H](Oc2nc(-c3cnn4ccccc34)nc(N3CCC(O)CC3)c2F)C1 [Example 75, 1-(5-Fluoro-6-{[(3R)-1-glycoloylpiperidin-3-yl]oxy}-2-pyrazolo[1,5-a]pyridin-3-ylpyrimidin-4-yl)piperidin-4-ol]
1 | 4 | 3 | CCOc1nc(-c2cnn3ccccc23)nc(N[C@@H]2CCCN(C(=O)CO)C2)c1F [Example 45, 2-{(3R)-3-[(6-Ethoxy-5-fluoro-2-pyrazolo[1,5-a]pyridin-3-ylpyrimidin-4-yl)amino]piperidin-1-yl}-2-oxoethanol]
0.8 | 150 | 4 | N#CC[C@H]1CC[C@H](Nc2nc(-c3cnn4ccccc34)nc(N3CCNCC3)c2F)CC1 [Example 3, {Trans-4-[(5-fluoro-6-piperazin-1-yl-2-pyrazolo[1,5-a]pyridin-3-ylpyrimidin-4-yl)amino]cyclohexyl}acetonitrile]
0.5 | 12 | 3 | N#CC[C@H]1CC[C@H](Nc2nc(-c3cnn4ccccc34)nc(N3CCC(O)CC3)c2F)CC1 [Example 1, (Trans-4-{[5-fluoro-6-(4-hydroxypiperidin-1-yl)-2-pyrazolo[1,5-a]pyridin-3-ylpyrimidin-4-yl]amino}cyclohexyl)acetonitrile]
1 | 6 | 2 | COCCOc1cc(N[C@@H]2CCCN(C(=O)CO)C2)nc(-c2cnn3ccccc23)n1 [Example 96, 2-((3R)-3-{[6-(2-Methoxyethoxy)-2-pyrazolo[1,5-a]pyridin-3-ylpyrimidin-4-yl]amino}piperidin-1-yl)-2-oxoethanol]
1 | 13 | 1 | COc1nc(-c2cnn3ccccc23)nc(N[C@@H]2CCCN(C(=O)CO)C2)c1F [Example 42, 2-{(3R)-3-[(5-Fluoro-6-methoxy-2-pyrazolo[1,5-a]pyridin-3-ylpyrimidin-4-yl)amino]piperidin-1-yl}-2-oxoethanol]
2 | 19 | 2 | N#Cc1cnc(N2CCC[C@@H](Nc3nc(-c4cnn5ccccc45)nc(OCCO)c3F)C2)nc1 [Example 57, 2-((3R)-3-{[5-fluoro-6-(2-hydroxyethoxy)-2-pyrazolo[1,5-a]pyridin-3-ylpyrimidin-4-yl]amino}piperidin-1-yl)pyrimidine-5-carbonitrile]
0.7 | 85 | 3 | CN(C)CCOc1nc(-c2cnn3ccccc23)nc(N[C@H]2CC[C@H](CC#N)CC2)c1F [Example 9, [trans-4-({6-[2-(dimethylamino)ethoxy]-5-fluoro-2-pyrazolo[1,5-a]pyridin-3-ylpyrimidin-4-yl}amino)cyclohexyl]acetonitrile]
1 | 10 | 3 | Cc1cc(-c2nc(-c3cnn4ccccc34)nc(N[C@@H]3CCCN(C(=O)CC#N)C3)c2F)cc(C)n1 [Example 87, 3-((3R)-3-{[6-(2,6-Dimethylpyridin-4-yl)-5-fluoro-2-pyrazolo[1,5-a]pyridin-3-ylpyrimidin-4-yl]amino}piperidin-1-yl)-3-oxopropanenitrile]
1 | 8 | 5 | O=C(CO)N1CCC[C@@H](Nc2nc(-c3cnn4ccccc34)nc(N3CCC(CO)CC3)c2F)C1 [Example 23, 2-[(3R)-3-({5-Fluoro-6-[4-(hydroxymethyl)piperidin-1-yl]-2-pyrazolo[1,5-a]pyridin-3-ylpyrimidin-4-yl}amino)piperidin-1-yl]-2-oxoethanol]
0.6 | 22 | 2 | CN1CCN(c2nc(-c3cnn4ccccc34)nc(N[C@@H]3CCCN(C(=O)CO)C3)c2F)CC1 [Example 25, 2-((3R)-3-{[5-fluoro-6-(4-methylpiperazin-1-yl)-2-pyrazolo[1,5-a]pyridin-3-ylpyrimidin-4-yl]amino}piperidin-1-yl)-2-oxoethanol]
4 | 10 | 12 | N#Cc1nc(-c2cnn3ccccc23)nc(N[C@@H]2CCCN(C(=O)CO)C2)c1F [Example 47, 5-Fluoro-6-{[(3R)-1-glycoloylpiperidin-3-yl]amino}-2-pyrazolo[1,5-a]pyridin-3-ylpyrimidine-4-carbonitrile]
1 | 1 | 4 | N#CCC(=O)N1CCC[C@@H](Nc2nc(-c3cnn4ccccc34)nc(-c3ccc(CO)nc3)c2F)C1 [Example 85, 3-[(3R)-3-({5-Fluoro-6-[6-(hydroxymethyl)pyridin-3-yl]-2-pyrazolo[1,5-a]pyridin-3-ylpyrimidin-4-yl}amino)piperidin-1-yl]-3-oxopropanenitrile]
1 | 4 | 7 | O=C(CO)N1CCC[C@@H](Nc2nc(-c3cnn4ccccc34)nc(-c3cccnc3)c2F)C1 [Example 62, 2-{(3R)-3-[(5-Fluoro-2-pyrazolo[1,5-a]pyridin-3-yl-6-pyridin-3-ylpyrimidin-4-yl)amino]piperidin-1-yl}-2-oxoethanol]
0.6 | 1 | 2 | N#CCC(=O)N1CCC[C@@H](Nc2nc(-c3cnn4ccccc34)nc(-c3ccc(N)nc3)c2F)C1 [Example 18, 3-((3R)-3-{[6-(6-Aminopyridin-3-yl)-5-fluoro-2-pyrazolo[1,5-a]pyridin-3-ylpyrimidin-4-yl]amino}piperidin-1-yl)-3-oxopropanenitrile]
0.6 | 2 | 1 | N#CCC(=O)N1CCC[C@@H](Nc2nc(-c3cnn4ccccc34)nc(-c3ccc(CO)cc3)c2F)C1 [Example 17, 3-[(3R)-3-({5-Fluoro-6-[4-(hydroxymethyl)phenyl]-2-pyrazolo[1,5-a]pyridin-3-ylpyrimidin-4-yl}amino)piperidin-1-yl]-3-oxopropanenitrile]
2 | 1 | 5 | Cc1cc(-c2cc(N[C@@H]3CCCN(C(=O)CC#N)C3)nc(-c3cnn4ccccc34)n2)cc(C)n1 [Example 102, 3-((3R)-3-{[6-(2,6-Dimethylpyridin-4-yl)-2-pyrazolo[1,5-a]pyridin-3-ylpyrimidin-4-yl]amino}piperidin-1-yl)-3-oxopropanenitrile]
3 | 4 | 1 | N#Cc1cnc(N2CCC[C@@H](Nc3cc(OCCO)nc(-c4cnn5ccccc45)n3)C2)cn1 [Example 104, 5-((3R)-3-{[6-(2-Hydroxyethoxy)-2-pyrazolo[1,5-a]pyridin-3-ylpyrimidin-4-yl]amino}piperidin-1-yl)pyrazine-2-carbonitrile]

Compound | IC50 [1] [nM] | IC50 [2] [nM] | IC50 [3] [nM]
O=C(COc1nc(-c2cnn3ccccc23)nc(N[C@@H]2CCCN(C(=O)CO)C2)c1F)OCc1ccccc1 [Example 44, Benzyl[(5-fluoro-6-{[(3R)-1-glycoloylpiperidin-3-yl]amino}-2-pyrazolo[1,5-a]pyridin-3-ylpyrimidin-4-yl)oxy]acetate] | 74 | 970 | 140
(5-{(3R)-3-[(5-fluoro-6-methoxy-2-pyrazolo[1,5-a]pyridin-3-ylpyrimidin-4-yl)amino]piperidin-1-yl}pyrazin-2-yl)methanol [Example 55] | 12 | 170 | 33
